This passage reports melting point results from patent US7687511B2, “Substituted dihydropyrimidines, dihydropyrimidones and dihydropyrimidinethiones as calcium channel blockers” (priority 2002, dated 2010).

As usually defined, the melting point is the temperature, or range, at which the solid turns liquid.

In turn, `CCCCCCCCCCCCCCCc1cccc(OC)c1C1NC(=O)NC(C)=C1C(=O)OCC` (stereo not drawn) [PPK-22, 5-ethoxycarbonyl-4-(2-methoxy-6-pentadecylphenyl)-6-methyl-3,4-dihydropyrimidin-2(1H)-one] returned a melting point of 91 to 93 °C.

`CCCCCCCCCCCCCCCc1cccc(OCC)c1C1NC(=O)NC(C)=C1C(=O)OC` (stereo not drawn) [PPK-23, 5-methoxycarbonyl-4-(2-ethoxy-6-pentadecylphenyl)-6-methyl-3,4-dihydropyrimidin-2(1H)-one] displayed a melting point of 127 to 129 °C.

In the case of `CCCCCCCCCCCCCCCc1cccc(OC)c1C1NC(=O)NC(C)=C1C(=O)OC` (stereo not drawn) [PPK-24, 5-methoxycarbonyl-4-(2-methoxy-6-pentadecylphenyl)-6-methyl-3,4-dihydropyrimidin-2(1H)-one], the melting point lay in the range of 101 to 102 °C.

In turn, `CCCCCCCCCCCCCCCc1cccc(OCC)c1C1NC(=O)NC(C)=C1C(=O)OCC` (stereo not drawn) [PPK-25, 5-ethoxycarbonyl-4-(2-ethoxy-6-pentadecylphenyl)-6-methyl-3,4-dihydropyrimidin-2(1H)-one] yielded a melting point of 99 to 100 °C.

`CCCCCCCCCCCCCCCc1cccc(OC)c1C1C(C(=O)OC)=C(C)NC(=O)N1C(=O)OCC` (stereo not drawn) [PPK-30, 3,6-dihydro-4-methyl-6-[2-methoxy-6-pentadecylphenyl]-2-oxo-1,5-(2H)-pyrimidinedicarboxylic acid 1-ethyl 5-methyl diester] showed a melting point of 121 to 122 °C.

Take `CCCCCCCCCCCCCCCc1cccc(OC)c1C1C(C(=O)OCC)=C(C)NC(=O)N1C(=O)OCC` (stereo not drawn) [PPK-31, 3,6-dihydro-4-methyl-6-[2-methoxy-6-pentadecylphenyl]-2-oxo-1,5-(2H)-pyrimidinedicarboxylic acid bis(ethyl ester)]: the melting point was 109 to 110 °C.

The compound `CCCCCCCCCCCCCCCc1cccc(OC)c1C1C(C(=O)OC(C)C)=C(C)NC(=O)N1C(=O)OCC` (stereo not drawn) [PPK-32, 3,6-dihydro-4-methyl-6-[2-methoxy-6-pentadecylphenyl]-2-oxo-1,5-(2H)-pyrimidinedicarboxylic acid 1-ethyl 5-isopropyl diester] gave a melting point of 100 °C.

On to `CCCCCCCCCCCCCCCc1cccc(OCC)c1C1C(C(=O)OC)=C(C)NC(=O)N1C(=O)OCC` (stereo not drawn) [PPK-33, 3,6-dihydro-4-methyl-6-[2-ethoxy-6-pentadecylphenyl]-2-oxo-1,5-(2H)-pyrimidinedicarboxylic acid 1-ethyl 5-methyl diester], for which the melting point was determined as 103 °C.

For `CCCCCCCCCCCCCCCc1cccc(OCC)c1C1C(C(=O)OCC)=C(C)NC(=O)N1C(=O)OCC` (stereo not drawn) [PPK-34, 3,6-dihydro-4-methyl-6-[2-ethoxy-6-pentadecylphenyl]-2-oxo-1,5-(2H)-pyrimidinedicarboxylic acid 1,5-diethyl diester], the melting point turned out to be 112 °C.

In turn, `CCCCCCCCCCCCCCCc1cccc(OC(C)C)c1C1C(C(=O)OC)=C(C)NC(=O)N1C(=O)OCC` (stereo not drawn) [PPK-36, 3,6-dihydro-4-methyl-6-[2-isopropoxy-6-pentadecylphenyl]-2-oxo-1,5-(2H)-pyrimidinedicarboxylic acid 1-ethyl 5-methyl diester] displayed a melting point of 120 to 121 °C.

Regarding `CCCCCCCCCCCCCCCc1cccc(OC(C)C)c1C1C(C(=O)OCC)=C(C)NC(=O)N1C(=O)OCC` (stereo not drawn) [PPK-37, 3,6-dihydro-4-methyl-6-[2-isopropoxy-6-pentadecylphenyl]-2-oxo-1,5-(2H)-pyrimidinedicarboxylic acid 1,5-diethyl diester], the melting point lay within 90 to 92 °C.

Compound `CCCCCCCCCCCCCCCc1cccc(OC(C)C)c1C1C(C(=O)OC(C)C)=C(C)NC(=O)N1C(=O)OCC` (stereo not drawn) [PPK-38, 3,6-dihydro-4-methyl-6-[2-isopropoxy-6-pentadecylphenyl]-2-oxo-1,5-(2H)-pyrimidinedicarboxylic acid 1-ethyl 5-isopropyl diester] returned a melting point of 88 to 90 °C.
